Laboratory results published in patent publication US20040058310A1 (priority 2002, published 2004).
Like-named read-outs stand apart in the source and are kept apart here.

Columns and labels:
[1] = test system: melanoma X63-Ag8 cells; assay: total epibatidine-binding sites in X63-Ag8 cells; details: mean and standard error of three independent experiments
From the text: (§1) The presence of nAChRs in B lymphocytes was further confirmed by studying the [^3H]-epibatidine and [^125I]-α-bungarotoxin binding. Epibatidine is a potent agonist of heteromeric nAChRs, while -α-bungarotoxin (α-Bgt) binds to both muscle-type nAChRs and homomeric neuronal-type of nAChRs. In addition, epibatidine penetrates inside the cell and binds both surface and intracellular receptors, while α-Bgt, when tested at ice-cold temperature, binds only surface-expressed receptors. Normal B lymphocytes and […] X63-Ag8 cells contained almost equal amounts of total epibatidine-binding sites per cell (12,220±3,200 and 10,170±1,100, respectively, means and standard error of three independent experiments).

[2] = test system: opioid receptor; details: cited from earlier work
[3] = test system: PMN nicotinic receptors; assay: [3H]-epibatidine binding sites in PMN of smokers and non-smokers; set-up: species or system human
Experimental: (§2) FIG. 2: [^3H]-epibatidine (A) and [^125I]-α-bungarotoxin (B) binding sites in human polymorphonuclear cells isolated from smokers (n=90 and 60, respectively) and non-smokers (n=50). Binding levels were measured at 10 nM of [^3H]-epibatidine and [^125I]-α-bungarotoxin. Nonspecific binding was determined in the presence of 1 μM or 100 μM of nicotine, respectively.
(§3) Human polymorphonuclear leukocytes were isolated according to a slightly modified version of the method described by Cabanis (Cabanis, Gressier et al. 1994). Briefly, 20 ml of fresh heparinized blood were diluted with an equal amount of phosphate-buffered saline (PBS) 0.1 M, pH 7.4, and placed above 10 ml of Histopaque-1077. After centrifugation at 400 g for 30 min, the pellet was resuspended in 40 ml of cold isotonic ammonium chloride solution (NH4Cl 0.15 M, NaHCO3 10 mM). Following 20 min at 4° C., the cell suspension was centrifuged at 160 g for 10 minutes, and the white pellets were washed twice in 10 ml of Hank's buffer. The protein content was measured using the method developed by Lowry et al. (Lowry et al. 1951).
(§4) Binding assays were performed on intact purified PMN. Cellular protein (100 μg) was incubated with 10 nM [^3H]-epibatidine for 30 min. or with [^125I]-α-bungarotoxin for 60 min at 25° C. in a volume of 100 μl. Specific binding was defined as the difference between total binding and binding in the presence of 1 μM or 100 μM nicotine, performed in triplicate.
Nicotinic receptor binding sites in PMN were investigated from 90 smokers and 50 non-smokers. Participating smokers were recruited from the Centre de Tabacologie, Hôpital A. Chenevier, Créteil.

[4] = test system: PMN nicotinic receptors; assay: saturation of specific [3H]-epibatidine binding to smokers' polymorphonuclear leukocytes; set-up: species or system human
Experimental: Insets, Scatchard analyses of specific binding of [^3H]-epibatidine and [^125I]-α-bungarotoxin (1 pM to 10 nM). Nonspecific binding was determined in the presence of 1 μM or 100 μM of nicotine respectively. Data are the mean± standard error of three experiments.
as §3, §4
Saturation studies were conducted with increasing concentrations of [^3H]-epibatidine (1 pM-10 nM) and [^125I]-α-bungarotoxin (1 pM-10 nM). Specific binding was defined as the difference between total binding and binding in the presence of 1 μM or 100 μM nicotine, respectively, performed in triplicate. Following the binding reactions, bound and free ligands were separated by rapid vacuum filtration through Whatman GF/B fiberglass filters (Polylabo) treated with ice-cold buffer (KH2PO4 5 mM, Na2HPO4 20 mM, NaCl 100 mM, pH 7.4) containing 0.1% milk. The filters were rinsed three times with 5 ml of the same ice-cold buffer and placed in vials with 4 ml of Picofluor 30 scintillation liquid (Packard Instrument). The radioactivity was determined by liquid scintillation counting.
Binding experiments were investigated in smokers' polymorphonuclear leukocyte cells in presence of various concentrations of [^3H]-epibatidine ranging from 0.1 nM to 25 nM.
For each experiment, the mean values of RCR or percentages were compared in a one-way analysis of variance and a Dunneft test. EC50 was calculated by non-linear regression fit of effect-concentration (C) curve to the equation: E=(Emax×C)/(C+EC50), where Emax and EC50 are the maximal efficiency and the concentration producing 50% effect respectively, using commercially available software (Micropharm®) (Urien 1995). Data from binding experiments were analysed by means of non-linear regression with commercially available software (Micropharm®) (Urien 1995).

[5] = test system: Normal B lymphocytes; assay: total epibatidine-binding sites in B lymphocytes; details: mean and standard error of three independent experiments
From the text: as §1

[6] = in vivo; cited from earlier work
[7] = hot plate assay; cited from earlier work
[8] = target: nicotinic acetylcholine receptors; details: cited from earlier work
[9] = test system: human polymorphonuclear cells
[10] = test system: human polymorphonuclear cells; remark: listed apart in the source
[11] = test system: α3, α4 and β2 subunits
Experimental: Total RNA was isolated from smokers and non-smokers (TRIZOL, Gibco). First strand cDNA synthesis reactions were performed after annealing 5 μg of total RNA with 100 ng random hexamers (70° C. for 10 minutes) by incubation at 42° C. for 50 minutes. Polymerase chain reactions were carried out in a 20 μl reaction volume containing 1 μl cDNA product, 250 ng of both forward and reverse primers (Table 1), 5 units of Taq polymerase then cycled 30 times at 95° C. for 1 minute, 55° C. for 1 minute and 72° C. for 2 minutes. The amplified DNA products were analysed by agarose gel electrophoresis and stained with ethidium bromide. The PCR products were transferred from the gel to Hybond-N^+ membranes (Amersham) and hybridised with a ^32P-end-labelled oligoprobe (Table 1). Southern blot hybridizations were performed overnight at 42° C. in hybridisation buffer (5×SSC, 1× Denhardt's, 20 mM sodium phosphate buffer pH 6.5, 0.1% SDS, 100 μg/ml tRNA). The Southern blots were washed for 1 hour at room temperature in 2×SSC and 1% SDS, then exposed to X-ray film (Kodak Biomax) overnight with an intensifying screen.

[12] = test system: PMN nicotinic receptors; assay: [125I]-α-bungarotoxin binding sites in PMN of smokers and non-smokers; set-up: species or system human
Experimental: as §2, §3
Binding assays were performed on intact purified PMN. Cellular protein (100 μg) was incubated with 10 nM [^3H]-epibatidine for 30 min. or with [^125I]-α-bungarotoxin for 60 min at 25° C. in a volume of 100 μl. […]

[13] = test system: PMN nicotinic receptors; assay: saturation of specific [125I]-α-bungarotoxin binding to smokers' polymorphonuclear leukocytes; set-up: species or system human
Experimental: FIG. 1: Saturation of specific [^3H]-epibatidine (A) and [^125I]-α-bungarotoxin (B) binding to human polymorphonuclear cells. Insets, Scatchard analyses of specific binding of [^3H]-epibatidine and [^125I]-α-bungarotoxin (1 pM to 10 nM). […] Data are the mean± standard error of three experiments.
Saturation studies were conducted with increasing concentrations of [^3H]-epibatidine (1 pM-10 nM) and [^125I]-α-bungarotoxin (1 pM-10 nM). […] Following the binding reactions, bound and free ligands were separated by rapid vacuum filtration through Whatman GF/B fiberglass filters (Polylabo) treated with ice-cold buffer (KH2PO4 5 mM, Na2HPO4 20 mM, NaCl 100 mM, pH 7.4) containing 0.1% milk. The filters were rinsed three times with 5 ml of the same ice-cold buffer and placed in vials with 4 ml of Picofluor 30 scintillation liquid (Packard Instrument). The radioactivity was determined by liquid scintillation counting.
Smokers' polymorphonuclear leukocytes (n=3) were used to investigate saturation experiments.

Question: For Clc1ccc(C2CC3CCC2N3)cn1 (stereo not drawn) [epibatidine, exo-2(6-chloro-3-pyridyl)-7-azabicyclo[2.2.1]-heptane], which “total epibatidine-binding sites per cell” value [1] is on record?
Answer: 10,170±1,100 sites per cell

Question: And the “affinity for the opioid receptor” value [2]?
Answer: 1/8000

Question: What about the “binding sites in non-smokers' PMN” value ([3]; 50 non-smokers, listed as [^3H]-epibatidine) of the same compound?
Answer: not present and None

Question: And the “smokers with detected binding sites” value ([3]; 90 smokers)?
Answer: 82%

Question: What about the “total number of binding sites in smokers” value ([3]; PMN of smokers, 10 nM radioligand) of the same compound?
Answer: 40.65±4.89 fmol/mg protein

Question: What about the Hill coefficient ([4]; biphasic Scatchard plot) of the same compound?
Answer: 0.76

Question: What about the “Bmax1, high affinity site” value ([4]; first site) of the same compound?
Answer: 46.97±5.64 fmol/mg protein

Question: And the “share of the total binding sites, high affinity site” value ([4]; first site)?
Answer: 86.86%

Question: What about the Kd ([4]; first site, read-out: Kd2, high affinity site) of the same compound?
Answer: 2.11 ± 0.43 nM

Question: What about the “Bmax1, very high affinity site” value ([4]; second site) of the same compound?
Answer: 7.73±0.64 fmol/mg protein

Question: What about the “share of the total binding sites, very high affinity site” value ([4]; second site) of the same compound?
Answer: 14.14%

Question: And the Kd ([4]; second site, read-out: Kd1, very high affinity site)?
Answer: 0.0563 ± 0.0278 nM

Question: And the “total epibatidine-binding sites per cell” value [5]?
Answer: 12,220±3,200 sites per cell

Question: And the “eliciting the Straub-tail response compared with morphine” value [6]?
Answer: approximately 500 fold that of morphine

Question: What about the “analgesic effect compared with morphine” value [7] of the same compound?
Answer: approximately 200 times higher than morphine

Question: What about the Ki ([8]; nAChR, restated in pM) of the same compound?
Answer: ~55 pM

Question: What about the Ki ([8]; nAChR) of the same compound?
Answer: 43 to 55 pM

Question: With Cc1cc([C@H]2C[C@@H]3CC[C@H]2N3)on1 [epiboxidine] as the compound, how does the Ki ([8]; nAChR) read?
Answer: 600 pM

Question: With CNC1(C)C2CCC(C2)C1(C)C (stereo not shown) [mecamylamine] as the compound, how does the “blockade of epibatidine binding to nicotinic acetylcholine receptors” value ([8]; noncompetitive nicotinic antagonist) read?
Answer: can be blocked

Question: For CN1CCCC1c1cccnc1 (stereo not shown) [nicotine], which “Bmax of [3H]-epibatidine binding sites after nicotine” value [9] is on record?
Answer: 34.66±6.25 fmol/mg protein

Question: And the “formation of [3H]-epibatidine binding sites” value [9]?
Answer: induced the formation

Question: What about the “increase of the number of [3H]-epibatidine binding sites” value [9] of the same compound?
Answer: 2.67 fold

Question: And the “number of [3H]-epibatidine binding sites after nicotine” value [9]?
Answer: 29.19±10.28 fmol/mg protein

Question: And the “change in the binding of [125I]-α-bungarotoxin to PMN” value [10]?
Answer: no change

Question: And the “nAChR subunit expression after ex-vivo nicotine exposure” value [11]?
Answer: induced expression of α3, α4 and β2 subunits

Question: And the Ki [8]?
Answer: 1010 pM

Question: For [^125I]-α-bungarotoxin, which “PMN tested that demonstrated binding sites” value [12] is on record?
Answer: Approximately 30%

Question: What about the “binding sites in smokers compared with non-smokers” value [12] of the same compound?
Answer: No difference

Question: And the Bmax [13]?
Answer: 189.46±126.27 fmol/mg proteins

Question: What about the “nH (Scatchard plot linearity)” value [13] of the same compound?
Answer: 1.08±0.06

Question: What about the Kd ([13]; read-out: apparent Kd) of the same compound?
Answer: 2.77 ± 1.54 nM
